Data as given in patent US20090030071A1, “Treatment of Cardiovascular Disease in Mexican Americans Using Nebivolol” (priority 2007, published 2009).
Entries after “also recorded” stand apart in the source; their conditions may differ.

Columns and labels:
[1] = system: human umbilical vein endothelial cells (HUVECs); assay: Endothelial-dependent NO release from HUVECs of non-Hispanic white and Mexican American donors, measured with electrochemical nanosensors; assay type: cell-based; details: for increase in NO release (NO bioavailability): 24 h pretreatment with nebivolol at 1.0 μM (FIG. 4)
Method: The effects of nebivolol and atenolol on endothelial-dependent NO release were tested in human umbilical vein endothelial cells (HUVECs). Human umbilical vein endothelial cells were isolated into primary cultures from non-Hispanic white and Mexican American female donors by Clonetics (San Diego, Calif.) and purchased as proliferating cells. All cell culture donors were healthy, with no pregnancy or prenatal complications. None of the donors took any drugs regularly and all were nonsmokers and consumed regular caloric/content diet. The identification of race was defined by self-report. The cultured cells were incubated in 95% air/5% CO2 at 37° C. and passage by an enzymatic (trypsin) procedure. […] Before the experiments, the cells (from second or third passage) were rinsed twice with Tyrode-HEPES buffer with 1.8 mmol/L CaCl2. Drugs were obtained from Mylan Laboratories (Morgantown, W. Va.). NO measurement was carried out with electrochemical nanosensors The design was based on previously developed and well-characterized chemically modified carbon-fiber technology ([…], Nature 358, 676-678, 1992; […]. Anal. Chem. 69, 454-462, 1997). Each of the nanosensors was made by depositing a sensing material on the tip of a carbon fiber (length 4-5 μm, diameter 0.2-0.5 μm). The fibers were sealed with nonconductive epoxy and electrically connected to copper wires with conductive silver epoxy. […] The NO nanosensors (diameter 1-2 μm) with a platinum wire (0.1 mm) counter electrode and saturated calomel reference electrode (SCE) were applied. Differential pulse voltammetry (DPV) and amperometry were performed with a computer-based Gamry VFP600 multichannel potentiostat. DPV was used to measure the basal NO concentrations, and amperometry was used to measure changes in NO concentrations from its basal level with time. The DPV current at the peak potential characteristic for NO oxidation (0.65 V) […] was directly proportional to the local concentrations of these compounds in the immediate vicinity of the sensor. Linear calibration curves (current vs. concentration) were constructed for each sensor from 10 nmol/L to 3 μmol/L before and after measurements with aliquots of NO standard solutions, respectively. The detection limit of the sensors was 10^-9 mol/L. The quantification of each analyte (concentration in nmol/L) was performed using a maximum current from amperograms and standard calibration curves. A reproducibility of measurements with nanosensors is relatively high (between 5-12%). […] The sensors were slowly raised 4±1 μm from the surface of a single endothelial cell. The HUVEC preparation is stable over the course of these experiments with the cells remaining viable in culture for >24 hours. Under non-stimulating conditions, basal levels of NO release are very low (<30 nM). […]

[2] = system: arteries isolated from control Wistar-Kyoto (WKY) rats; assay: NO release from arteries isolated from control Wistar-Kyoto (WKY) rats; parameters: species or system rat; details: for amount of NO released: WKY rat arteries, concentration of 10 μM (maximum NO release)
Method: In one aspect of the present invention, a composition comprising nebivolol is administered to a person of Hispanic descent, particularly a Mexican American, wherein nebivolol is administered in a mixture containing a greater proportion (enantiomeric excess) of the l-steroisomer of nebivolol. In another embodiment, all or substantially all of the mixture comprises the l-stereoisomer of nebivolol. NO release levels from arteries isolated from control Wistar-Kyoto (WKY) rats following treatment with nebivolol racemate, l-nebivolol or d-nebivolol vary. […] At this concentration, the amount of NO released was 340±30 nM, 284±24 nM, and 180±21 nM for l-nebivolol, nebivolol racemate and d-nebivolol, respectively. These findings confirm that nebivolol can stimulate NO release in the intact artery in a stereoselective manner. See also, Xhonneux R, Wouters L, Reneman R S, et al. The l-enantiomer of nebivolol potentiates the blood pressure lowering effect of the d-enantiomer. Eur. J. Pharmacol. 1990; 181:261-265.

[3] = system: human umbilical vein endothelial cells; assay: CaI-stimulated peroxynitrite (ONOO−) release in HUVECs from MA and NHW donors after 24 h pre-treatment (nanosensor array); assay type: cell-based; details: for reduction of ONOO− levels: nebivolol pretreatment
Method: (§1) Endothelial function in cells from normotensive, age-matched Mexican American (MA) and Non-Hispanic White (NHW) donors, as well as the effects of treatment with nebivolol was also determined. Endothelial NO and peroxynitrite (ONOO^−) release was measured simultaneously in human umbilical vein endothelial cells from age-matched MA and NHW donors using a nanosensor array. The effects of nebivolol on NO and ONOO^− production was evaluated following pre-treatment (24 h) using calcium ionophore (CaI) as a receptor-independent stimulus. Levels of eNOS were measured by Western blot analysis. Drug-membrane interactions were determined by small angle x-ray diffraction analysis.

[4] = system: human umbilical vein endothelial cells; assay: CaI-stimulated endothelial NO release in HUVECs from MA and NHW donors after 24 h pre-treatment (nanosensor array); assay type: cell-based; details: for enhancement of NO release: pretreatment 24 hr, 1.0 μM, CaI 1.0 μM stimulus
Method: as §1

aortic endothelial cells = assay: STZ-induced diabetes: CaI-induced endothelial-dependent NO release from aortic endothelial cells after nebivolol treatment of animals; assay type: in vivo; details: nebivolol treatment prior to sacrifice at 13 weeks, p=0.1273
Excerpt: FIG. 6 depicts the effects of STZ-induced diabetes on the ratio of CaI-induced NO/ONOO release from aortic endothelial cells in the absence and presence of nebivolol treatment prior to sacrifice of animals at 13 weeks. Values are reported as mean±SD. *p<0.0001 versus control and ^†p<0.001 versus STZ treatment (Student t-test). FIG. 7 depicts the effects of STZ-induced diabetes on CaI-induced endothelial-dependent NO release from aortic endothelial cells in the absence and presence of nebivolol treatment prior to sacrifice of animals at 13 weeks. Values are reported as mean±SD. *p<0.0001 versus control and ^†p<0.001 versus STZ treatment (Student t-test).

eNOS = eNOS levels by Western blot analysis in endothelium; assay type: cell-based, human; details: MA endothelium, nebivolol treatment
Method: as §1

OC(CNCC(O)C1CCc2cc(F)ccc2O1)C1CCc2cc(F)ccc2O1 (racemic) [nebivolol, α, α′-[iminobismethylene]bis[6-fluoro-3,4-dihydro-2H-1-benzopyran-2-methanol]]
increase in NO release (NO bioavailability) ([1]; HUVECs from Mexican American donors): 138 ± 2 nM | increase in NO release (NO bioavailability) ([1]; HUVECs from white donors): 68 ± 3 nM | increase in NO bioavailability, Mexican American samples relative to white donors ([1]; nebivolol at 1.0 μM, 24 h pretreatment): two-fold greater | amount of NO released [2]: 284 ± 24 nM | ONOO− level after treatment ([3]; MA endothelium, from 746±12 nM without treatment): 195 ± 10 nM | reduction of ONOO− levels ([3]; MA endothelium): 75% | ONOO− level after treatment ([3]; NHW endothelium, from 416±7 nM without treatment): 191 ± 13 nM | reduction of ONOO− levels ([3]; NHW endothelium): 50% | enhancement of NO release ([4]; MA cells): 57% | increase of ratio of NO to ONOO− (indicator of eNOS coupling) ([4]; MA, following nebivolol treatment): more than 5 fold | enhancement of NO release ([4]; NHW cells): 20% | CaI-induced endothelial-dependent NO release versus non-diabetic control animals (aortic endothelial cells): not a statistically significant difference as compared to non-diabetic control animals | increase of eNOS levels (eNOS): two-fold

O[C@@H](CNC[C@H](O)[C@H]1CCc2cc(F)ccc2O1)[C@@H]1CCc2cc(F)ccc2O1 [l-nebivolol]
amount of NO released [2]: 340 ± 30 nM

CC(C)NCC(O)COc1ccc(CC(N)=O)cc1 (stereo not drawn) [atenolol]
stimulation of NO release ([1]; either racial group, identical conditions (24 h pre-incubation at 1.0 or 5.0 μM, FIGS. 4 and 5)): failed to stimulate any significant amount of NO release; also recorded: did not have any effect | effects on NO release, ONOO− levels, NO/ONOO− ratio and eNOS levels ([4]; MA and NHW HUVECs): not observed

O[C@H](CNC[C@@H](O)[C@H]1CCc2cc(F)ccc2O1)[C@@H]1CCc2cc(F)ccc2O1 [d-nebivolol]
ability to stimulate NO release (order of activity) ([2]; WKY arterial vessels): weakest stimulant of NO release | amount of NO released [2]: 180 ± 21 nM
